This is an account of results in ChEMBL document CHEMBL2412960, “Inhibition of Mycobacterium tuberculosis strains H37Rv and MDR MS-115 by a new set of C5 modified pyrimidine nucleosides” (Bioorg Med Chem, 2013).

In brackets after ≈: the same amount, converted by molar mass. Activity calls are given as the source filed them. The calls are words filed in the database; no cut-off is given here.

Series [1] deals with Mycobacterium tuberculosis. Description: Bacteriostatic activity against Mycobacterium tuberculosis H37Rv assessed as growth inhibition. It counts as functional.
Series [2] concerns Mycobacterium tuberculosis. Description: Bacteriostatic activity against Mycobacterium tuberculosis H37Rv assessed as growth inhibition at 200 ug/mL relative to control. It counts as functional. The conditions noted are these: read-out: GI.
Series [3] can be described thus: Cytotoxicity against human A549 cells after 72 hrs by MTT assay. It is filed as cell-based. Conditions: read-out: CD50.
Series [4] is described as follows: Cytotoxicity against human Jurkat cells after 72 hrs by MTT assay. The conditions noted are these: read-out: CD50. It counts as cell-based. In general terms: Tetrazolium dyes change colour on reduction, which living cells bring about.
Series [5] can be described thus: Cytotoxicity against African green monkey Vero cells after 72 hrs by MTT assay. It is filed as cell-based. The conditions noted are these: chlorocebus sabaeus, read-out: CD50.
For series [6], the system named is Saccharomyces cerevisiae. Description: Antifungal activity against Saccharomyces cerevisiae RIA 259. It is filed as functional, organism-based.
In series [7] the test system is Aspergillus niger. Description: Antifungal activity against Aspergillus niger INA 00760. It counts as functional, organism-based.
In series [8] the test system is Pseudomonas aeruginosa. Description: Antibacterial activity against Pseudomonas aeruginosa ATCC 27853. It counts as functional, organism-based.
Series [9] concerns Escherichia coli. Description: Antibacterial activity against Escherichia coli ATCC 25922. It is filed as functional, organism-based.
For series [10], the system named is Staphylococcus aureus. Description: Antibacterial activity against methicillin-resistant Staphylococcus aureus INA 00761. It is filed as functional, organism-based.
Series [11] has as its system Leuconostoc mesenteroides. Description: Antibacterial activity against vancomycin-resistant Leuconostoc mesenteroides VKPM B-4177. It is filed as functional.
In series [12] the test system is Staphylococcus aureus. The series is described as follows: Antibacterial activity against methicillin-susceptible Staphylococcus aureus FDA 209P. It is filed as functional, organism-based.
Series [13] has as its system Micrococcus luteus. The series is described as follows: Antibacterial activity against Micrococcus luteus NCTC 8340. It is filed as functional, organism-based.
Series [14] relates to Bacillus mycoides. Description: Antibacterial activity against Bacillus mycoides 537. It is filed as functional, organism-based.
Series [15] relates to Bacillus pumilus. Description: Antibacterial activity against Bacillus pumilus NCTC 8241. It is filed as functional, organism-based.
Series [16] concerns Bacillus subtilis. Description: Antibacterial activity against Bacillus subtilis ATCC 6633. It counts as functional, organism-based.
Series [17] concerns Mycobacterium tuberculosis. The series is described as follows: Bacteriostatic activity against Mycobacterium tuberculosis H37Rv assessed as growth inhibition at 5 ug/mL relative to control. It is filed as functional. Conditions: read-out: GI.
The subject of series [18] is Mycobacterium tuberculosis. The series is described as follows: Bacteriostatic activity against Mycobacterium tuberculosis H37Rv assessed as growth inhibition at 10 ug/mL relative to control. It counts as functional. The conditions noted are these: read-out: GI.
Series [19] has as its system Mycobacterium tuberculosis. The series is described as follows: Bacteriostatic activity against Mycobacterium tuberculosis H37Rv assessed as growth inhibition at 50 ug/mL relative to control. It is filed as functional. Conditions: read-out: GI.
Series [20] concerns Mycobacterium tuberculosis. Description: Bacteriostatic activity against Mycobacterium tuberculosis H37Rv assessed as growth inhibition at 100 ug/mL relative to control. It is filed as functional. Conditions: read-out: GI.
Series [21] deals with Mycobacterium tuberculosis. Description: Bacteriostatic activity against Mycobacterium tuberculosis H37Rv assessed as growth inhibition at 20 ug/mL relative to control. The conditions noted are these: read-out: GI. It counts as functional.
Series [22] relates to Mycobacterium tuberculosis. Description: Bacteriostatic activity against Mycobacterium tuberculosis H37Rv assessed as growth inhibition at 1 ug/mL relative to control. Conditions: read-out: GI. It is filed as functional.
In series [23] the test system is Leuconostoc mesenteroides. The series is described as follows: Antibacterial activity against vancomycin-resistant Leuconostoc mesenteroides VKPM B-4177 at 95 ug/mL. It is filed as functional.

The term MIC99 denotes an inhibitory concentration at the 99% level, which refers to growth in some studies and to a panel of isolates in others. Turning to `CCCCCCCCCCCCOCc1cn([C@H]2C[C@H](N=[N+]=[N-])[C@@H](CO)O2)c(=O)[nH]c1=O`, the MIC99 in series [1] worked out at 200 µg/mL (≈ 443 µM). The inhibition of growth at 200 µg/mL in series [2] was 100%. Further, the CC50 at 72 h turned out to be 10 µg/mL (≈ 22.1 µM) in [3], 8 µg/mL (≈ 17.7 µM) in [4] and 15 µg/mL (≈ 33.2 µM) in series [5].

Turning to `CCCCCCCCCCCCOCc1cn([C@H]2C[C@H](O)[C@@H](CO)O2)c(=O)nc1N`, the MIC99 in series [1] is 200 µg/mL (≈ 470 µM). In addition, the inhibition of growth at 200 µg/mL in [2] came out at 100%. In addition, the CC50 at 72 h in series [3] was 45 µg/mL (≈ 106 µM); in series [4], 37 µg/mL (≈ 86.9 µM); in series [5] it was above 100 µg/mL.

As for `CCCCCCCCCCCCOCc1cn([C@H]2C[C@H](O)[C@@H](CO)O2)c(=O)[nH]c1=O`, the outcome in series [6], in series [7], in series [8], in series [9], in series [10] and in series [11] was inactive. For the same compound, the result in series [12], in series [13], in series [14], in [15] and in series [16] was inactive. The MIC99 in [1] was determined as 20 µg/mL (≈ 46.9 µM). In [17], the inhibition of growth at 5 µg/mL was determined as 25%. In series [18], the inhibition of growth at 10 µg/mL is 90%. In series [19], the inhibition of growth at 50 µg/mL was 100%. Moreover, the inhibition of growth at 100 µg/mL in [20] was 100%. In series [21], the inhibition of growth at 20 µg/mL amounted to 100%. Besides, the results for the CC50 at 72 h in [3], in series [4] and in series [5] were 100 µg/mL (≈ 234 µM), 100 µg/mL (≈ 234 µM) and above 100 µg/mL, respectively.

Consider `CCCCCCCCCCCCCCOCc1cn([C@H]2C[C@H](O)[C@@H](CO)O2)c(=O)[nH]c1=O`, for which the MIC99 in series [1] came out at 200 µg/mL (≈ 440 µM). Moreover, the inhibition of growth at 200 µg/mL in series [2] came out at 100%. Also, the CC50 at 72 h in [5] is above 100 µg/mL.

Regarding `CO[C@H]1/C=C/O[C@@]2(C)Oc3c(C)c(O)c4c(O)c(c(/C=N/N5CCN(C)CC5)c(O)c4c3C2=O)NC(=O)/C(C)=C\C=C\[C@H](C)[C@H](O)[C@@H](C)[C@@H](O)[C@@H](C)[C@H](OC(C)=O)[C@@H]1C` [RIFAMPIN], in series [1], the MIC99 came out at 1 µg/mL (≈ 1.22 µM). For the same compound, the inhibition of growth at 1 µg/mL in series [22] came to 100%. Also, the CC50 at 72 h in [5] was above 500 µg/mL.

As for `CCCCCCCCCCCCOCc1cn([C@@H]2C[C@H](O)[C@@H](CO)O2)c(=O)[nH]c1=O`, the result in series [6], in series [7], in series [8], in series [9], in series [10] and in series [11] was inactive. For the same compound, the outcome in series [12], in series [13], in series [14], in [15] and in series [16] was inactive. For the same compound, the result in series [23] was Active. Besides, in series [1], the MIC99 was 20 µg/mL (≈ 46.9 µM). In addition, the inhibition of growth at 10 µg/mL in [18] is 90%. Further, the inhibition of growth at 50 µg/mL in series [19] came to 100%. In [20], the inhibition of growth at 100 µg/mL came out at 100%. The inhibition of growth at 20 µg/mL in series [21] was determined as 99%. Further, the CC50 at 72 h in series [3] is 45 µg/mL (≈ 105 µM); in series [4] it was 40 µg/mL (≈ 93.8 µM); in series [5] it was above 100 µg/mL.
